Experimental data published in PubChem BioAssay AID248 (DTP/NCI, 2004).
Values joined by “and” are separate entries in the source; they are usually repeats but may differ in a detail not shown here. Equal entries are not always repeated. Inconclusive results and toxic doses are left out. Rule as the data show it: active = T/C of 150% or more; inactive = T/C below 125%.

Test system: L1210 leukemia ip in BDF1 mice, survival T/C
Experiment: NCI In Vivo Anticancer Drug Screen. Data for tumor model L1210 Leukemia (intraperitoneal) in B6D2F1 (BDF1) mice
Conditions: endpoint: mean survival time, higher = longer survival
Procedure: The antitumor activity of compounds was measured in mice bearing transplantable tumors. Survival or tumor size were measured and the results are expressed as the measurement made in the treated group (T) divided by the measurement made in the vehicle treated control group (C). The tumor model used in this assay is L1210 Leukemia (intraperitoneal) in B6D2F1 (BDF1) mice

[1] = dose: 100.0 mg/kg/injection, schedule: Q01DX009 (ip), vehicle: Klucel (hydroxypropylcellulose) (HPC)
[2] = dose: 200.0 mg/kg/injection, schedule: Q01DX009 (ip), vehicle: Klucel (hydroxypropylcellulose) (HPC)
[3] = dose: 100.0 mg/kg/injection, schedule: Q01DX001 (ip), vehicle: saline
[4] = dose: 200.0 mg/kg/injection, schedule: Q01DX001 (ip), vehicle: saline
[5] = dose: 400.0 mg/kg/injection, schedule: Q01DX001 (ip), vehicle: saline
[6] = dose: 100.0 mg/kg/injection, schedule: Q04DX003 (ip), vehicle: Klucel (hydroxypropylcellulose) (HPC)
[7] = dose: 200.0 mg/kg/injection, schedule: Q04DX003 (ip), vehicle: Klucel (hydroxypropylcellulose) (HPC)
[8] = dose: 400.0 mg/kg/injection, schedule: Q01DX009 (ip), vehicle: Klucel (hydroxypropylcellulose) (HPC)
[9] = dose: 400.0 mg/kg/injection, schedule: Q04DX003 (ip), vehicle: Klucel (hydroxypropylcellulose) (HPC)
[10] = dose: 100.0 mg/kg/injection, schedule: Q01DX009 (ip), vehicle: saline with Tween-80
[11] = dose: 100.0 mg/kg/injection, schedule: Q04DX003 (ip), vehicle: saline
[12] = dose: 200.0 mg/kg/injection, schedule: Q01DX009 (ip), vehicle: saline with Tween-80
[13] = dose: 200.0 mg/kg/injection, schedule: Q04DX003 (ip), vehicle: saline
[14] = dose: 400.0 mg/kg/injection, schedule: Q04DX003 (ip), vehicle: saline
[15] = dose: 50.0 mg/kg/injection, schedule: Q04DX003 (ip), vehicle: saline
[16] = dose: 100.0 mg/kg/injection, schedule: Q01DX001 (ip), vehicle: Klucel (hydroxypropylcellulose) (HPC)
[17] = dose: 200.0 mg/kg/injection, schedule: Q01DX001 (ip), vehicle: Klucel (hydroxypropylcellulose) (HPC)
[18] = dose: 400.0 mg/kg/injection, schedule: Q01DX001 (ip), vehicle: Klucel (hydroxypropylcellulose) (HPC)
[19] = dose: 100.0 mg/kg/injection, schedule: Q04DX003 (ip), vehicle: saline with Tween-80
[20] = dose: 200.0 mg/kg/injection, schedule: Q04DX003 (ip), vehicle: saline with Tween-80
[21] = dose: 400.0 mg/kg/injection, schedule: Q04DX003 (ip), vehicle: saline with Tween-80
[22] = dose: 100.0 mg/kg/injection, schedule: Q01DX001 (ip), vehicle: saline with Tween-80
[23] = dose: 200.0 mg/kg/injection, schedule: Q01DX001 (ip), vehicle: saline with Tween-80
[24] = dose: 400.0 mg/kg/injection, schedule: Q01DX001 (ip), vehicle: saline with Tween-80

Measured: T/C

CN(C)Cc1cc(C(C)(C)CC(C)(C)C)cc(CN(C)C)c1O
inactive: [1] 97 % of control | [2] 99 % of control

S=C(NCc1ccc(Cl)c(Cl)c1)Nc1ccccc1
inactive: dose: 25.0 mg/kg/injection, schedule: Q01DX009 (ip), vehicle: Klucel (hydroxypropylcellulose) (HPC) 102 % of control | dose: 50.0 mg/kg/injection, schedule: Q01DX009 (ip), vehicle: Klucel (hydroxypropylcellulose) (HPC) 90 % of control | [1] 87 % of control and 90 % of control

CCCC(C)OP(=O)(OCC)OC(C)CC (centres undefined)
inactive: [1] 100 % of control | [2] 89 % of control

COc1ccc2c(c1OC)C13CCN(C)C(C2)C12C=CC(=O)C3c1c(OC)ccc(OC)c12 (centres undefined)
inactive: [3] 95 % of control | [4] 95 % of control | [5] 91 % of control

c1ccc2c(CCc3ccncc3)cccc2c1
inactive: [1] 103 % of control | [6] 101 % of control | [2] 100 % of control | [7] 103 % of control | [8] 97 % of control | [9] 100 % of control

Cn1c(=O)c2[nH]c(C3CC3)nc2n(C)c1=O
inactive: dose: 50.0 mg/kg/injection, schedule: Q01DX001 (ip), vehicle: saline 113 % of control | [3] 101 % of control | [4] 98 % of control

CC1(C)CC(Br)C(=O)c2ccccc21 (centres undefined)
inactive: [6] 100 % of control | [7] 105 % of control | [9] 97 % of control

CCNc1nc(Cl)nc(-c2cn(-c3ccccc3)c3ccccc23)n1
inactive: [3] 93 % of control | [10] 101 % of control | [11] 99 % of control | [4] 90 % of control | [12] 92 % of control | [13] 92 % of control | [5] 88 % of control | [14] 94 % of control

Cc1cccc(Cl)c1NC(=O)Nc1ccc(S(N)(=O)=O)cc1
inactive: [1] 94 % of control | [2] 102 % of control | [8] 92 % of control

ClCCN(CCCl)c1ccc(C=Nc2ccc(-n3ccnc3)cc2)c(Cl)c1
inactive: dose: 80.0 mg/kg/injection, schedule: Q04DX002 (ip), vehicle: Klucel (hydroxypropylcellulose) (HPC) 95 % of control | dose: 160.0 mg/kg/injection, schedule: Q04DX002 (ip), vehicle: Klucel (hydroxypropylcellulose) (HPC) 102 % of control | dose: 320.0 mg/kg/injection, schedule: Q04DX002 (ip), vehicle: Klucel (hydroxypropylcellulose) (HPC) 98 % of control

O=P1(O)Cc2ccccc2-c2ccccc21
inactive: dose: 100.0 mg/kg/injection, schedule: Q01DX001 (ip), vehicle: other 96 % of control | dose: 200.0 mg/kg/injection, schedule: Q01DX001 (ip), vehicle: other 101 % of control | dose: 400.0 mg/kg/injection, schedule: Q01DX001 (ip), vehicle: other 98 % of control

CC(C)CC[NH-].CC(C)CC[NH-].[Cl][Pt+2][Cl]
inactive: [15] 100 % of control and 105 % of control | [11] 92 % of control and 105 % of control | [13] 103 % of control and 117 % of control | [14] 97 % of control and 88 % of control

Cc1c2ccncc2cc2c3ccccc3n(C)c12
inactive: dose: 37.5 mg/kg/injection, schedule: Q04DX003 (ip), vehicle: Klucel (hydroxypropylcellulose) (HPC) 98 % of control | dose: 75.0 mg/kg/injection, schedule: Q04DX003 (ip), vehicle: Klucel (hydroxypropylcellulose) (HPC) 103 % of control | dose: 150.0 mg/kg/injection, schedule: Q04DX003 (ip), vehicle: Klucel (hydroxypropylcellulose) (HPC) 102 % of control | dose: 300.0 mg/kg/injection, schedule: Q04DX003 (ip), vehicle: Klucel (hydroxypropylcellulose) (HPC) 115 % of control

COc1ccc([N+](=O)[O-])cc1NC(=O)NCc1cccnc1
inactive: [16] 91 % of control | [1] 93 % of control and 91 % of control | dose: 100.0 mg/kg/injection, schedule: Q04DX002 (ip), vehicle: Klucel (hydroxypropylcellulose) (HPC) 87 % of control and 92 % of control | [6] 103 % of control | [17] 93 % of control | [2] 93 % of control and 98 % of control | dose: 200.0 mg/kg/injection, schedule: Q04DX002 (ip), vehicle: Klucel (hydroxypropylcellulose) (HPC) 97 % of control and 87 % of control | [7] 100 % of control | [18] 90 % of control | [8] 93 % of control and 95 % of control | dose: 400.0 mg/kg/injection, schedule: Q04DX002 (ip), vehicle: Klucel (hydroxypropylcellulose) (HPC) 97 % of control and 92 % of control | [9] 101 % of control

CCCCOC(=O)c1ccc(NC(=O)Nc2ccc(SC)cc2)cc1
inactive: [1] 95 % of control | [2] 95 % of control | [8] 95 % of control

O=C(O)c1ccc2c([N+](=O)[O-])cccc2n1
inactive: [1] 100 % of control | [6] 96 % of control | [2] 97 % of control | [7] 107 % of control | [9] 93 % of control

CN(C)CCCC1(C#N)c2ccccc2CCc2ccccc21
inactive: dose: 6.25 mg/kg/injection, schedule: Q01DX009 (ip), vehicle: saline 102 % of control | dose: 12.5 mg/kg/injection, schedule: Q01DX009 (ip), vehicle: saline 105 % of control | dose: 25.0 mg/kg/injection, schedule: Q01DX009 (ip), vehicle: saline 103 % of control | dose: 25.0 mg/kg/injection, schedule: Q04DX003 (ip), vehicle: saline 100 % of control | dose: 50.0 mg/kg/injection, schedule: Q01DX009 (ip), vehicle: saline 113 % of control | [15] 100 % of control | [11] 102 % of control

CCCCOCC(=O)OCCCC
inactive: dose: 100.0 mg/kg/injection, schedule: Q01DX009 (ip), vehicle: saline 103 % of control | [19] 93 % of control | dose: 200.0 mg/kg/injection, schedule: Q01DX009 (ip), vehicle: saline 105 % of control | [20] 94 % of control | dose: 400.0 mg/kg/injection, schedule: Q01DX009 (ip), vehicle: saline 87 % of control | [21] 93 % of control

CC(=O)Oc1c2sccc2cc2ccsc12
inactive: [22] 97 % of control | [23] 92 % of control | [24] 92 % of control

CCSc1ncc(C)c(Cl)n1
inactive: dose: 100.0 mg/kg/injection, schedule: Q01DX009 (ip), vehicle: water 103 % of control | dose: 100.0 mg/kg/injection, schedule: Q04DX003 (ip), vehicle: water 100 % of control | dose: 200.0 mg/kg/injection, schedule: Q01DX009 (ip), vehicle: water 94 % of control | dose: 200.0 mg/kg/injection, schedule: Q04DX003 (ip), vehicle: water 108 % of control | dose: 400.0 mg/kg/injection, schedule: Q01DX009 (ip), vehicle: water 100 % of control | dose: 400.0 mg/kg/injection, schedule: Q04DX003 (ip), vehicle: water 100 % of control

Cc1nc([Se]c2nc(C)n3ccncc23)c2cnccn12
inactive: [19] 98 % of control | [20] 95 % of control | [21] 93 % of control

CC1(C)OC2OC(C(O)CSCc3ccccc3)C(O)C2O1 (centres undefined)
inactive: dose: 50.0 mg/kg/injection, schedule: Q01DX009 (ip), vehicle: saline with Tween-80 94 % of control | [22] 92 % of control | [10] 93 % of control | [23] 89 % of control | [12] 97 % of control

CC(C)(C)C1CCC2SC(C)(C(C)(C)C)CC(C(C)(C)C)C2C1 (centres undefined)
inactive: [22] 104 % of control | [23] 98 % of control | [24] 91 % of control

COc1ccc(C(=O)/C=C/c2ccc(N(C)C)cc2)cc1
inactive: dose: 37.5 mg/kg/injection, schedule: Q04DX003 (ip), vehicle: saline 95 % of control | dose: 75.0 mg/kg/injection, schedule: Q04DX003 (ip), vehicle: saline 90 % of control | dose: 150.0 mg/kg/injection, schedule: Q04DX003 (ip), vehicle: saline 89 % of control

O=C(O)COC(C[N+](=O)[O-])C(Cl)(Cl)Cl (centres undefined)
inactive: [10] 95 % of control | [12] 92 % of control | dose: 400.0 mg/kg/injection, schedule: Q01DX009 (ip), vehicle: saline with Tween-80 88 % of control

CCOC(=O)CCc1c(C(=O)OCC)[nH]c(C)c1C(=O)OC(C)(C)C
inactive: [16] 105 % of control | [17] 124 % of control | [18] 95 % of control
